From patent US10858367B2, “Compounds” (GLAXOSMITHKLINE INTELLECTUAL PROPERTY DEVELOPMENT LIMITED, priority 2017, dated 2020)
Structures can show the parent of a compound that is named as a salt.

Molecular target: T1, LRRK2 Ser935 phosphorylation in SH-SY5Y cells over-expressing recombinant full length LRRK2 (Homo sapiens, UniProt Q5S007)
T1 construct: A BacMam virus expressing full length recombinant LRRK2 was purchased from Invitrogen; host or cells: SH-SY5Y human neuroblastoma cells transduced with BacMam LRRK2 virus
T1 sequence (Q5S007 whole entry): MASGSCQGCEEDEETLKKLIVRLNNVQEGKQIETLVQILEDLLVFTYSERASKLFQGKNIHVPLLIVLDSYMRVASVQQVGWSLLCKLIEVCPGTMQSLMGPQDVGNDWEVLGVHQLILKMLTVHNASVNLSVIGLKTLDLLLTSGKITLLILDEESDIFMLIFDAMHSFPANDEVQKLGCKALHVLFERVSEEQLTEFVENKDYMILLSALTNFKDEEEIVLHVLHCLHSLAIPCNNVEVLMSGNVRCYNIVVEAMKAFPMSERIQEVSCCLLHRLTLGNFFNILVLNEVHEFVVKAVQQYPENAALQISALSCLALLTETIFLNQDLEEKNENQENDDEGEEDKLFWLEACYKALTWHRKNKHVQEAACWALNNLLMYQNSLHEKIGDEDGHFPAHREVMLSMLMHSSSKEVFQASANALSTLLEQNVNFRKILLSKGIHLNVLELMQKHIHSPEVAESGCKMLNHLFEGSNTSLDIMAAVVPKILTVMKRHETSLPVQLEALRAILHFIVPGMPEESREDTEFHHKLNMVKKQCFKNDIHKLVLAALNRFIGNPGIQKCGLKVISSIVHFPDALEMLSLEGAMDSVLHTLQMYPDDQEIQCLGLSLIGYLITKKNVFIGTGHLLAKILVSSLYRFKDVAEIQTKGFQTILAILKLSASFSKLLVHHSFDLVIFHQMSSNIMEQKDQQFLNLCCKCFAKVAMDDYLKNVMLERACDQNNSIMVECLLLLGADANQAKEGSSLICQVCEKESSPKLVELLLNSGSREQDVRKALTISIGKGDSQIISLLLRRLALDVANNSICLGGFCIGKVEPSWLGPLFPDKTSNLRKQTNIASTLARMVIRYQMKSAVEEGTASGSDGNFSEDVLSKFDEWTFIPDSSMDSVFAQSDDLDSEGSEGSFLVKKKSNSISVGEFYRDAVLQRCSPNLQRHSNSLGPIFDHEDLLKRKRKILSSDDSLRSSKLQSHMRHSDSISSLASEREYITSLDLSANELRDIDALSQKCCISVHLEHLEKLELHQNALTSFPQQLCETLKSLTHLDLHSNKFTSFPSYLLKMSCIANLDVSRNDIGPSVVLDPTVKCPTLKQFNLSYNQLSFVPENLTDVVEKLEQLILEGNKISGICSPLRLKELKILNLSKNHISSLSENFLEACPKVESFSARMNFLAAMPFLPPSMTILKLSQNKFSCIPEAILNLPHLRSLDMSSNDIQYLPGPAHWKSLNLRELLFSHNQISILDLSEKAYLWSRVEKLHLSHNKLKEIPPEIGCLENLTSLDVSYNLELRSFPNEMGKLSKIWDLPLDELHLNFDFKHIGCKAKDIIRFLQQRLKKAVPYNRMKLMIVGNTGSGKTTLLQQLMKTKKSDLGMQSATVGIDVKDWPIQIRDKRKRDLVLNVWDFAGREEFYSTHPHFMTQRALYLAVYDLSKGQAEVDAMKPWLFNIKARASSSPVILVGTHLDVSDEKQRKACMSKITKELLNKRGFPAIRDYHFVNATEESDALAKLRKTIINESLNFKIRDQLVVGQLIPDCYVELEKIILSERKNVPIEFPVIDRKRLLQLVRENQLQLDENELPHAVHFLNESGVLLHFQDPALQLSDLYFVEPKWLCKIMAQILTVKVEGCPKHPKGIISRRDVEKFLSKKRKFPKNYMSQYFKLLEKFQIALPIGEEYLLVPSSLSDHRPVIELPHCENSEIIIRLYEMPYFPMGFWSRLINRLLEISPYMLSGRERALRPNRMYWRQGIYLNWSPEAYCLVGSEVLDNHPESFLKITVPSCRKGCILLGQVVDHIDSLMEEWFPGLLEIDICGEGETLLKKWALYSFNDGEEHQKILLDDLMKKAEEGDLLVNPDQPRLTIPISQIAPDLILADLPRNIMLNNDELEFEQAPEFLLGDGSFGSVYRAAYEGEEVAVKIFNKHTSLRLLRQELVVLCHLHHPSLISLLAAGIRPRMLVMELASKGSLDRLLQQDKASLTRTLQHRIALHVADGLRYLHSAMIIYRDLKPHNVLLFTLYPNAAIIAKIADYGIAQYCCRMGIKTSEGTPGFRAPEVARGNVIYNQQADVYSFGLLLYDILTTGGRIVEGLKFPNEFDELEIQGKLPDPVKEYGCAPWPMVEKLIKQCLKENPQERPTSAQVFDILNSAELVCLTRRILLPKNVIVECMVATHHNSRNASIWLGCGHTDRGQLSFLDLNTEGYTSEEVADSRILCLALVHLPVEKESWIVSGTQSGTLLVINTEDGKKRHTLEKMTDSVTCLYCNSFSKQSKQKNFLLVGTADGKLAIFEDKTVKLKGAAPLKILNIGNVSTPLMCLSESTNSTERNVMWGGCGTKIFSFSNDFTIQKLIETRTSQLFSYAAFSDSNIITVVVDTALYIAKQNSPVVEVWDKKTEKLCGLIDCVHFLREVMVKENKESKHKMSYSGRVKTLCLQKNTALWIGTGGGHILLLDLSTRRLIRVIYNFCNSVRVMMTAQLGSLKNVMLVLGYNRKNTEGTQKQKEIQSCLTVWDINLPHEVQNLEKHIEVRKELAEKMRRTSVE
Experiment: Recombinant cellular LRRK2 AlphaScreen assay
Format: cell-based
Conditions: human neuroblastoma SH-SY5Y cells, BacMam full length LRRK2, 60 minutes with compound, read-out: pIC50 in the recombinant cellular LRRK2 AlphaScreen assay (converted)
Description: b. Recombinant Cellular LRRK2 AlphaScreen Assay
To determine the activity of compounds against LRRK2 kinase activity in cells, the observed LRRK2 kinase-dependent modulation of LRRK2 Ser 935 phosphorylation (Dzamko et al., 2010, Biochem. J. 430: 405-413) was utilized to develop a quantitative 384 well plate-based immunoassay of LRRK2 Ser935 phosphorylation in the human neuroblastoma cell line SH-SY5Y, engineered to over-express recombinant full length LRRK2 protein.
A BacMam virus expressing full length recombinant LRRK2 was purchased from Invitrogen and amplified by inoculation of SF-9 cells at MOI 0.3 for 4-5 days in Sf-900 III SFM medium supplemented with 3% fetal bovine serum. Infected cell cultures were then centrifuged at 2000 g for 20 minutes, viral supernatant titer determined by anti-gp64 plaque assay and stored at 4° C.
Affinity-purified anti-phospho LRRK2 Ser935 sheep polyclonal antibody (Dzamko et al., 2010, Biochem. J. 430: 405-413) was biotinylated by standard methods (PerkinElmer). Anti-LRRK2 rabbit polyclonal antibody was purchased from Novus Biologicals. AlphaScreen Protein A IgG Kit (including acceptor and donor beads) was purchased from Perkin Elmer.
SH-SY5Y cells were grown in DMEM/F12 medium with 10% dialysed fetal bovine serum and harvested by treatment with 0.5% trypsin-EDTA for 5 minutes at 37° C. followed by centrifugation at 1000 rpm for 4 minutes. The cell pellet was resuspended in Opti-MEM reduced serum media (Invitrogen) at 200,000 cells/ml and mixed with the BacMam LRRK2 virus at MOI=50. 50 μl cell solutions were then dispensed to each well of a 384-well plate and incubated at 37° C., 5% CO2 for 24 hours.
Serial dilutions of test compounds were prepared in Opti-MEM reduced serum media (Invitrogen) and 5.6 ul transferred from compound plate to cell assay plate to achieve a top final assay concentration of 10 uM. DMSO was used in certain wells as controls. Cells were incubated at 37° C., 5% CO2 for 60 minutes. The medium was then removed and cells lysed by addition of 20 ul cell lysis buffer (Cell Signaling Technology) and incubation at 4° C. for 20 minutes. 10 ul of antibody/acceptor bead mix [(1/1000 biotinylated-pS935 LRRK2 antibody, 1/1000 total-LRRK2 antibody, 1/100 Acceptor beads in AlphaScreen detection buffer (25 mM Hepes (pH 7.4), 0.5% Triton X-100, 1 mg/ml Dextran 500 and 0.1% BSA)] was then added to each well and plates incubated for 2 hours at ambient temperature in the dark. 10 μl of donor beads solution (1/33.3 donor beads in AlphaScreen detection buffer) was then added to each well. Following incubation for a further 2 hours at ambient temperature in the dark, plates were read on an EnVision™ plate reader at emission 520-620 nm with excitation 680 nm. Dose response curve data was based on sigmoidal dose-response model.

| SMILES | IC50 [nM] |
| --- | --- |
| Cc1nc(N2CC3CC(C2)C3C(=O)O)cc(-n2ncc3cc(C)c(C4CCOCC4)cc32)n1 (centres unmarked) [Example E80, 3-{2-Methyl-6-[5-methyl-6-(tetrahydro-pyran-4-yl)-indazol-1-yl]-pyrimidin-4-yl}-3-aza-bicyclo[3.1.1]heptane-6-carboxylic Acid] | ≤ 1000 |
| Cc1nc(N2C[C@@H]3C[C@H]2CO3)cc(-n2ncc3cc(C)c(C4CCN(C(=O)CO)CC4)cc32)n1 [Example E54, 1-(4-(1-(6-((1S,4S)-2-oxa-5-azabicyclo[2.2.1]heptan-5-yl)-2-methylpyrimidin-4-yl)-5-methyl-1H-indazol-6-yl)piperidin-1-yl)-2-hydroxyethanone] | ≤ 1000 |
| Cc1nc(N2C[C@@H]3C[C@H]2CO3)cc(-n2ncc3cc(C)c(C4CCN(CCO)CC4F)cc32)n1 (single isomer, unassigned) [Example E21] | ≤ 1000 |
| Cc1nc(N2C[C@H]3C[C@@H]2CN3C2COC2)cc(-n2ncc3cc(C)c([C@H]4CC[C@@](C)(O)CC4)cc32)n1 [Example E29, Cis-1-methyl-4-(5-methyl-1-(2-methyl-6-((1R,4R)-5-(oxetan-3-yl)-2,5-diazabicyclo[2.2.1]heptan-2-yl)pyrimidin-4-yl)-1H-indazol-6-yl)cyclohexanol] | ≤ 1000 |
| Cc1nc(N2C[C@H]3C[C@@H]2CO3)cc(-n2ncc3cc(C)c(C4C5CN(C6CCOC6)CC54)cc32)n1 (stereo partly drawn) [Example E179, (1R,4R)-5-(2-methyl-6-(5-methyl-6-(3-((S)-tetrahydrofuran-3-yl)-3-azabicyclo-[3.1.0]hexan-6-yl)-1H-indazol-1-yl)pyrimidin-4-yl)-2-oxa-5-azabicyclo[2.2.1]heptane] | ≤ 1000 |
| COc1nc(N2CC3CC(C2)C3C(=O)O)cc(-n2ncc3cc(C)c(OC(C)C)cc32)n1 (centres unmarked) [Example E81, 3-(6-(6-isopropoxy-5-methyl-1H-indazol-1-yl)-2-methoxypyrimidin-4-yl)-3-azabicyclo[3.1.1]heptane-6-carboxylic Acid] | ≤ 10 |
| Cc1nc(N2CC3CC2CC3C(=O)O)cc(-n2ncc3cc(C)c(C4CCC(C)(O)CC4)cc32)n1 (single isomer, unassigned) [Example E76, 2-(6-(6-(cis-4-hydroxy-4-methylcyclohexyl)-5-methyl-1H-indazol-1-yl)-2-methylpyrimidin-4-yl)-2-azabicyclo[2.2.1]heptane-5-carboxylic Acid, TFA Salt] | ≤ 10 |
| COc1nc(N2CC3CC2CC3C(=O)O)cc(-n2ncc3cc(Cl)c(O[C@H]4CCOC4)cc32)n1 (single isomer, unassigned) [Example E84] | ≤ 1000 |
| Cc1nc(N2C[C@@H]3C[C@H]2CO3)cc(-n2ncc3cc(C)c([C@H]4CC[C@@](C)(O)CC4)cc32)n1 [Example E7, Cis-4-(1-(6-((1S,4S)-2-oxa-5-azabicyclo[2.2.1]heptan-5-yl)-2-methylpyrimidin-4-yl)-5-methyl-1H-indazol-6-yl)-1-methylcyclohexanol] | ≤ 1000 |
| Cc1nc(N2CC3CC(C2)C3C(=O)O)cc(-n2ncc3cc(C)c(C4CCC(C)(O)CC4)cc32)n1 (single isomer, unassigned) [Example E78, Cis-3-{6-[6-(4-Hydroxy-4-methyl-cyclohexyl)-5-methyl-indazol-1-yl]-2-methyl-pyrimidin-4-yl}-3-aza-bicyclo[3.1.1]heptane-6-carboxylic Acid] | ≤ 10 |
| Cc1nc(N2C[C@@H]3C[C@H]2CO3)cc(-n2ncc3cc(Cl)c(N4CCC(C)(O)C4)cc32)n1 (single isomer, unassigned) [Example E47] | ≤ 1000 |
| COc1nc(N2CC3CC2CO3)cc(-n2ncc3cc(C)c(C4CCN(CCO)CC4F)cc32)n1 (single isomer, unassigned) [Example E18] | ≤ 10 |
| COc1nc(N2C[C@H]3C[C@@H]2CO3)cc(-n2ncc3ccc(OC4(C)CC4)cc32)n1 [Example E3, (1R,4R)-5-(2-methoxy-6-(6-(1-methylcyclopropoxy)-1H-indazol-1-yl)pyrimidin-4-yl)-2-oxa-5-azabicyclo[2.2.1]heptane] | ≤ 1000 |
| Cc1nc(N2C[C@H]3C[C@@H]2CO3)cc(-n2ncc3cc(C)c(C4CCN(C5CCOC5)CC4F)cc32)n1 (single isomer, unassigned) [Example E149] | ≤ 1000 |
| Cc1nc(N2CC3CCC(C2)O3)cc(-n2ncc3cc(C)c(C4CCN(C5COC5)CC4)cc32)n1 [Example E42, 3-(2-Methyl-6-(5-methyl-6-(1-(oxetan-3-yl)piperidin-4-yl)-1H-indazol-1-yl)pyrimidin-4-yl)-8-oxa-3-azabicyclo[3.2.1]octane] | ≤ 1000 |
| COc1nc(N2CC3CCC(C2)O3)cc(-n2ncc3cc(C)c(C4CCNCC4)cc32)n1 [Example E62, 3-(2-methoxy-6-(5-methyl-6-(piperidin-4-yl)-1H-indazol-1-yl)pyrimidin-4-yl)-8-oxa-3-azabicyclo[3.2.1]octane 2,2,2-trifluoroacetate] | ≤ 1000 |

The remaining lines, values ahead:

| IC50 [nM] | SMILES |
| --- | --- |
| ≤ 1000 | COc1nc(N2CC3CC2CO3)cc(-n2ncc3cc(C)c(C4CCN(C5CCOC5)CC4O)cc32)n1 (single isomer, unassigned) [Example E135] |
| ≤ 1000 | Cc1nc(N2C[C@@H]3C[C@H]2CO3)cc(-n2ncc3cc(Cl)c(C4CCN(C5COC5)CC4)cc32)n1 [Example E26, (1S,4S)-5-(6-(5-chloro-6-(1-(oxetan-3-yl)piperidin-4-yl)-1H-indazol-1-yl)-2-methylpyrimidin-4-yl)-2-oxa-5-azabicyclo[2.2.1]heptane] |
| ≤ 1000 | COc1nc(N2C[C@@H]3C[C@H]2CO3)cc(-n2ncc3cc(C)c(C4CCN(C5CCOC5)CC4)cc32)n1 (single isomer, unassigned) [Example E15] |
| ≤ 10 | [2H]C([2H])([2H])Oc1nc(N2C[C@H]3C[C@@H]2CO3)cc(-n2ncc3cc(C)c(C4CCN(C5COC5)CC4)cc32)n1 [Example E72, (1R,4R)-5-(6-(5-methyl-6-(1-(oxetan-3-yl)piperidin-4-yl)-1H-indazol-1-yl)-2-(trideuteriummethoxy)pyrimidin-4-yl)-2-oxa-5-azabicyclo[2.2.1]heptane] |
| ≤ 1000 | Cc1nc(N2C[C@H]3C[C@@H]2CO3)cc(-n2ncc3cc(C)c(C4CCN(C5COC5)CC4)cc32)n1 [Example E39, (1R,4R)-5-(2-methyl-6-(5-methyl-6-(1-(oxetan-3-yl)piperidin-4-yl)-1H-indazol-1-yl)pyrimidin-4-yl)-2-oxa-5-azabicyclo[2.2.1]heptane] |
| ≤ 1000 | COCCN1CCC(c2cc3c(cnn3-c3cc(N4C[C@H]5C[C@@H]4CO5)nc(OC)n3)cc2C)CC1 [Example E35, (1R,4R)-5-(2-methoxy-6-(6-(1-(2-methoxyethyl)piperidin-4-yl)-5-methyl-1H-indazol-1-yl)pyrimidin-4-yl)-2-oxa-5-azabicyclo[2.2.1]heptane] |
| ≤ 1000 | COc1nc(N2C[C@@H]3C[C@H]2CO3)cc(-n2ncc3cc(C)c(C4CCN(C5COC5)CC4)cc32)n1 [Example E2, (1S,4S)-5-(2-methoxy-6-(5-methyl-6-(1-(oxetan-3-yl)piperidin-4-yl)-1H-indazol-1-yl)pyrimidin-4-yl)-2-oxa-5-azabicyclo[2.2.1]heptane] |
| ≤ 10 | COc1nc(N2CC3CC2CO3)cc(-n2ncc3cc(C)c([C@H]4CC[C@@](C)(O)CC4)cc32)n1 (single isomer, unassigned) [Example E11] |
| ≤ 1000 | Cc1nc(N2C[C@H]3C[C@@H]2CO3)cc(-n2ncc3cc(C)c(C4CCN(C5COC5)CC4(C)O)cc32)n1 (single isomer, unassigned) [Example E147] |
| ≤ 1000 | Cc1nc(N2C[C@H]3C[C@@H]2CO3)cc(-n2ncc3cc(Cl)c(C4CCN(C5COC5)CC4)cc32)n1 [Example E25, (1R,4R)-5-(6-(5-chloro-6-(1-(oxetan-3-yl)piperidin-4-yl)-1H-indazol-1-yl)-2-methylpyrimidin-4-yl)-2-oxa-5-azabicyclo[2.2.1]heptane] |
